Earlier results, collected in patent publication US4729992A, “Cephalosporin esters, their production and use” (Tatsuo Chemical Ind., Ltd., priority 1984, dated 1988).

How the values were obtained:
Details in all cases: Antimicrobial Agent and Chemotherapy 14, 557-568 (1978)
Escherichia coli = tested on: Escherichia coli
Proteus morganii = tested on: Proteus morganii
Proteus vulgaris = tested on: Proteus vulgaris
Staphylococcus aureus = tested on: Staphylococcus aureus
Klebsiella pneumoniae = tested on: Klebsiella pneumoniae
Proteus mirabilis = tested on: Proteus mirabilis

Measured: antibacterial activity

CN(C)CCn1nnnc1SCC1=C(C(=O)O)N2C(=O)[C@@H](NC(=O)Cc3csc(N)n3)[C@H]2SC1 [compound [II], 7β-[2-(2-aminothiazol-4-yl)acetamido]3-[[[1-(2-dimethylaminoethyl)-1H-tetrazol-5-yl]thio]methyl]ceph-3-em-4-carboxylic acid]
potent antibacterial activity: all assays above
